In patent US20250034110A1, “LPAR1 ANTAGONISTS AND USES THEREOF” (Pipeline Therapeutics, Inc., priority 2021, published 2025) one finds IC50 data, which are given here for 36 compounds.

The target of the assay is human LPAR1 (Homo sapiens, UniProt Q92633). Briefly: In vitro functional assay of lysophosphatidic acid receptor 1 activity (calcium flux). The class given is cell-based. On the technique in general: Calcium flux is commonly read through the fluorescence of an indicator in the cells.
Setting [1] is: B103 cells stably expressing human LPAR1, calcium flux (Fluo-4 NW) after lysophosphatidic acid (18:1) at EC80, 100 pM to 10 μM, read-out: LPAR1 IC50.

Where two headings read alike, the source gives them in different places.

human LPAR1, sequence (Q92633 whole entry): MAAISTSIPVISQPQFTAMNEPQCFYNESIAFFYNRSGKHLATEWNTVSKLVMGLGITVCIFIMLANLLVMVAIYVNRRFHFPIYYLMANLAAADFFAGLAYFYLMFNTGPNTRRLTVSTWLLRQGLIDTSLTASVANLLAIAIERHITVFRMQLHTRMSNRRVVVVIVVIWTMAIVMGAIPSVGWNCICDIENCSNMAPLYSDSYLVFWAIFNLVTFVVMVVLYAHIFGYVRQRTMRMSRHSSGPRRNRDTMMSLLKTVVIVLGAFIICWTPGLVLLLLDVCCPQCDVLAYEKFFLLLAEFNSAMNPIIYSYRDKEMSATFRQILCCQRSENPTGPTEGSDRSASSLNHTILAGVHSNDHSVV

As a reminder, the IC50 is the concentration that gives 50% inhibition. On to `CC(=O)N(C(C)=O)[C@H]1CC[C@@H](N(C(=O)Nc2ccc(C)nc2OC(F)F)c2ccccc2C(C)C)CC1` [Example 264, N-acetyl-N-((1s,4s)-4-(3-(2-(difluoromethoxy)-6-methylpyridin-3-yl)-1-(2-isopropylphenyl)ureido)-cyclohexyl)acetamide], for which, under setting [1], the IC50 was 100 to 1000 nM.
The same measure, in the same setting: for `CC(C)c1ccccc1N(C(=O)Nc1ncc(Cl)cc1OC(F)F)C1CC(CC(=O)O)C1` (stereo not drawn) [Example 175, 2-(3-(3-(5-chloro-3-(difluoromethoxy)pyridin-2-yl)-1-(2-isopropylphenyl)ureido)cyclobutyl)acetic acid] the value was < 10 nM.
In the case of `CC(=O)N1CCC(N(C(=O)Nc2ccc(C)[n+]([O-])c2OC(F)F)c2ccccc2C(C)C)CC1` [Example 197, 3-(3-(1-acetylpiperidin-4-yl)-3-(2-isopropylphenyl)ureido)-2-(difluoromethoxy)-6-methylpyridine 1-oxide], the IC50 (LPAR1 IC50) was > 1000 nM.
Turning to `CC(=O)N1CCC(N(C(=O)Nc2ncc(F)cc2Br)c2ccccc2C(C)C)CC1` [Example 137], the IC50 (LPAR1 IC50) is > 1000 nM.
For the compound `COC(C)c1ccccc1N(C(=O)Nc1ccc(C)nc1OC(F)F)C1CCN(C(C)=O)CC1` (stereo not drawn) [Example 35, 1-(1-acetylpiperidin-4-yl)-3-(2-(difluoromethoxy)-6-methylpyridin-3-yl)-1-(2-(1-methoxyethyl)phenyl)urea], the half-maximal inhibitory concentration (IC50) (LPAR1 IC50) lay within 100 to 1000 nM.
As for `COCC(=O)N1CC(N(C(=O)Nc2ccc(C)nc2OC(F)F)c2ccccc2C(C)C)C1` [Example 82, 3-(2-(difluoromethoxy)-6-methylpyridin-3-yl)-1-(2-isopropylphenyl)-1-(1-(2-methoxyacetyl)azetidin-3-yl)urea], the IC50 under setting [1] lay within 10 to 100 nM.
The same measure, in the same setting: the result for `COc1ccc(NC(=O)N(c2ccccc2C(C)C)[C@@H]2CCC[C@H](C(=O)O)C2)c(OC(F)F)n1` [Example 286] reads 10 to 100 nM; that for `Cc1ccc(NC(=O)N(c2ccccc2C(C)C)[C@H]2C[C@H](Cc3nnn[nH]3)C2)c(OC(F)F)n1` [Example 191, 1-((1r,3r)-3-((1H-tetrazol-5-yl)methyl)cyclobutyl)-3-(2-(difluoromethoxy)-6-methylpyridin-3-yl)-1-(2-isopropylphenyl)urea], 10 to 100 nM.
Take `COc1ccc(NC(=O)N(c2ccccc2C(C)C)[C@@H]2CCN(C(C)=O)C[C@H]2F)c(OC(F)F)n1` (racemic) [Example 46, rac-1-((3R,4R)-1-acetyl-3-fluoropiperidin-4-yl)-3-(2-(difluoromethoxy)-6-methoxypyridin-3-yl)-1-(2-isopropylphenyl)urea]: the IC50 (LPAR1 IC50) is 10 to 100 nM.
On the same count and under the same terms, the result for `COc1ccc(NC(=O)N(c2ccccc2C(C)C)[C@@H]2C[C@H]3CC[C@@H](C2)N3C(C)=O)c(OC(F)F)n1` [Example 54, 1-((1R,3s,5S)-8-acetyl-8-azabicyclo[3.2.1]octan-3-yl)-3-(2-(difluoromethoxy)-6-methoxypyridin-3-yl)-1-(2-isopropylphenyl)urea] reads 10 to 100 nM; that for `Cc1ccc(NC(=O)N(c2ccccc2C(C)C)C2CCN(C(=O)Cn3nccn3)CC2)c(OC(F)F)n1` [Example 79, 1-(1-(2-(2H-1,2,3-triazol-2-yl)acetyl)piperidin-4-yl)-3-(2-(difluoromethoxy)-6-methylpyridin-3-yl)-1-(2-isopropylphenyl)urea], < 10 nM.
For the compound `CC(C)c1ccccc1N(C(=O)Nc1ccc(Cl)cn1)[C@H]1CC[C@H](C(=O)O)CC1` [Example 297, (1r,4r)-4-(3-(5-chloropyridin-2-yl)-1-(2-isopropylphenyl)ureido)cyclohexane-1-carboxylic acid], under setting [1], the IC50 lay within 10 to 100 nM.
Still for that read-out and setting: for `Cc1ccc(NC(=O)N(c2ccccc2C(C)C)[C@H]2CC[C@H](C#N)CC2)c(OC(F)F)n1` [Example 241, 1-((1r,4r)-4-cyanocyclohexyl)-3-(2-(difluoromethoxy)-6-methylpyridin-3-yl)-1-(2-isopropylphenyl)urea] the value was 100 to 1000 nM; for `COc1ccc(NC(=O)N(c2ccccc2C(C)C)[C@H]2CC[C@H](c3cc(O)no3)CC2)c(OC(F)F)n1` [Example 283, 3-(2-(difluoromethoxy)-6-methoxypyridin-3-yl)-1-((1r,4r)-4-(3-hydroxyisoxazol-5-yl)cyclohexyl)-1-(2-isopropylphenyl)urea], 10 to 100 nM; for `Cc1ccc(NC(=O)N(c2ccccc2C(C)C)C2CCOCC2)c(OC(F)F)n1` [Example 18, 3-(2-(difluoromethoxy)-6-methylpyridin-3-yl)-1-(2-isopropylphenyl)-1-(tetrahydro-2H-pyran-4-yl)urea], 10 to 100 nM.
For the compound `COc1ccc(NC(=O)N(c2ccccc2C(C)C)C2CCCN(C)C2=O)c(OC(F)F)n1` (stereo not drawn) [Example 45, 3-(2-(difluoromethoxy)-6-methoxypyridin-3-yl)-1-(2-isopropylphenyl)-1-(1-methyl-2-oxopiperidin-3-yl)urea], under setting [1], the IC50 was in the range of 100 to 1000 nM.
Same read-out and setting: the result for `CC(=O)N[C@H]1CC[C@@H](N(C(=O)Nc2ccc(C)nc2OC(F)F)c2ccccc2C(C)C)CC1` [Example 266, N-((1s,4s)-4-(3-(2-(difluoromethoxy)-6-methylpyridin-3-yl)-1-(2-isopropylphenyl)ureido)cyclohexyl)acetamide] reads 100 to 1000 nM.
Turning to `Cc1ccc(NC(=O)N(c2ccccc2C(C)C)C2CCS(=O)(=O)CC2)c(OC(F)F)n1` [Example 20, 3-(2-(difluoromethoxy)-6-methylpyridin-3-yl)-1-(1,1-dioxidotetrahydro-2H-thiopyran-4-yl)-1-(2-isopropylphenyl)urea], the IC50 under setting [1] lay within 10 to 100 nM.
The same measure, in the same setting: for `Cc1ccc(NC(=O)N(c2ccccc2C(C)C)[C@H]2CC[C@H](CC(C)(C)O)CC2)c(OC(F)F)n1` [Example 247, 3-(2-(difluoromethoxy)-6-methylpyridin-3-yl)-1-((1r,4r)-4-(2-hydroxy-2-methylpropyl)cyclohexyl)-1-(2-isopropylphenyl)urea] the value was 10 to 100 nM.
Regarding `Cc1nc(OC(F)F)c(NC(=O)N(c2ccccc2C(C)C)[C@H]2CC[C@H](C(=O)O)CC2)cc1F` [Example 221, (1r,4r)-4-(3-(2-(difluoromethoxy)-5-fluoro-6-methylpyridin-3-yl)-1-(2-isopropylphenyl)ureido)cyclohexane-1-carboxylic acid], the IC50 under setting [1] is < 10 nM.
Take `COc1ccc(NC(=O)N(c2ccccc2C(C)C)[C@H]2CCN(C3COC3)C2)c(OC(F)F)n1` [Example 38, (S)-3-(2-(difluoromethoxy)-6-methoxypyridin-3-yl)-1-(2-isopropylphenyl)-1-(1-(oxetan-3-yl)pyrrolidin-3-yl)urea]: the IC50 under setting [1] lay in the range of 100 to 1000 nM.
Still for that read-out and setting: for `COc1ccc(NC(=O)N(c2ccccc2C(C)C)[C@H]2CCC[C@@H](C(=O)O)C2)c(OC(F)F)n1` [Example 147] the value was < 10 nM.
As for `Cc1ccc(NC(=O)N(c2ccccc2C(C)C)C2CNC(=O)C2)c(OC(F)F)n1` (stereo not drawn) [Example 30, 3-(2-(difluoromethoxy)-6-methylpyridin-3-yl)-1-(2-isopropylphenyl)-1-(5-oxopyrrolidin-3-yl)urea], the concentration for half-maximal inhibition (IC50) under setting [1] was in the range of 100 to 1000 nM.
The same measure, in the same setting: the result for `Cc1ccc(NC(=O)N(c2ccccc2C(C)C)C2CC(=O)N(C)C2)c(OC(F)F)n1` (stereo not drawn) [Example 7, 3-(2-(difluoromethoxy)-6-methylpyridin-3-yl)-1-(2-isopropylphenyl)-1-(1-methyl-5-oxopyrrolidin-3-yl)urea] reads 100 to 1000 nM; that for `Cc1ccc(NC(=O)N(c2ccccc2C(C)C)[C@H]2CC[C@H](C(=O)O)C2)c(OC(F)F)n1` [Example 304], < 10 nM.
With `CC(=O)N1CCC(N(C(=O)Nc2ccc(C)nc2OC(F)F)c2cccc(C(C)C)c2)CC1` [Example 32, 1-(1-acetylpiperidin-4-yl)-3-(2-(difluoromethoxy)-6-methylpyridin-3-yl)-1-(3-isopropylphenyl)urea], the IC50 (LPAR1 IC50) was in the range of 100 to 1000 nM.
In the case of `Cc1ccc(NC(=O)N(c2ccccc2C(C)C)[C@H]2CC[C@](O)(C(F)(F)C(=O)O)CC2)c(OC(F)F)n1` [Example 326], the half-inhibitory concentration (IC50) under setting [1] is < 10 nM.
`COC(=O)CC1CC(N(C(=O)Nc2ccc(C)nc2OC(F)F)c2ccccc2C(C)C)C1` (stereo not drawn) [Example 159, methyl 2-(3-(3-(2-(difluoromethoxy)-6-methylpyridin-3-yl)-1-(2-isopropylphenyl)ureido)cyclobutyl)acetate]: the IC50 under setting [1] was 100 to 1000 nM.
Regarding `COc1cc(Br)c(F)cc1NC(=O)N(c1ccccc1C(C)C)[C@H]1CC[C@H](C(=O)O)CC1` [Example 299, (1r,4r)-4-(3-(4-bromo-5-fluoro-2-methoxyphenyl)-1-(2-isopropylphenyl)ureido)cyclohexane-1-carboxylic acid], the IC50 under setting [1] was < 10 nM.
`Cc1ccc(NC(=O)N(c2ccccc2C(C)C)C2CN(C(=O)Cn3nccn3)C2)c(OC(F)F)n1` [Example 80, 1-(1-(2-(2H-1,2,3-triazol-2-yl)acetyl)azetidin-3-yl)-3-(2-(difluoromethoxy)-6-methylpyridin-3-yl)-1-(2-isopropylphenyl)urea]: the IC50 under setting [1] was in the range of 100 to 1000 nM.
Same read-out and setting: for `Cc1ccc(NC(=O)N(c2ccccc2C(C)C)C2CC(CC(=O)O)C2)c(OC(F)F)n1` (stereo not drawn) [Example 160, 2-(3-(3-(2-(difluoromethoxy)-6-methylpyridin-3-yl)-1-(2-isopropylphenyl)ureido)cyclobutyl)acetic acid] the value was < 10 nM.
For the compound `CC(=O)N1CC(N(C(=O)Nc2ncc(Cl)cc2OC(F)F)c2ccccc2C(C)C)C1` [Example 120], under setting [1], the IC50 was 100 to 1000 nM.
Consider `Cc1ccc(NC(=O)N(c2ccccc2C(C)C)[C@H]2C[C@H](C#N)C2)c(OC(F)F)n1` [Example 25, 1-((1r,3r)-3-cyanocyclobutyl)-3-(2-(difluoromethoxy)-6-methylpyridin-3-yl)-1-(2-isopropylphenyl)urea], for which the IC50 under setting [1] is 100 to 1000 nM.
In the case of `COc1ccc(NC(=O)N(c2ccccc2C(C)C)C2CC(CC(=O)O)C2)c(OC(F)F)n1` (stereo not drawn) [Example 148], the IC50 under setting [1] was < 10 nM.
Consider `COc1ccc(NC(=O)N(c2ccccc2C(C)C)[C@@H]2[C@@H]3CC[C@H]2CN(C(C)=O)C3)c(OC(F)F)n1` [Example 56, 1-((1R,5S,8s)-3-acetyl-3-azabicyclo[3.2.1]octan-8-yl)-3-(2-(difluoromethoxy)-6-methoxypyridin-3-yl)-1-(2-isopropylphenyl)urea], for which the IC50 (LPAR1 IC50) was in the range of 100 to 1000 nM.
Turning to `Cc1ccc(NC(=O)N(c2ccccc2C(C)C)[C@H]2CC[C@@H](CO)CC2)c(OC(F)F)n1` [Example 242], the IC50 under setting [1] lay in the range of 100 to 1000 nM.
